Experimental findings from PMC9410094 (Marine Drugs, 2022) are described below.

Series [1] is described as follows: RP-HPLC retention time as measure of hydrophobicity. The series is classed as physicochemical. Particulars: chromatographic, semipreparative RP-HPLC, C18 column, linear gradient 5 to 80% (v/v) acetonitrile in water with 0.1% TFA within 50 minutes; used as measure of hydrophobicity. Here is the method: Table S1. Characteristics of the recombinant AMPs.
1 Mean Kyte–Doolittle hydrophobicity index (GRAVY) was calculated using the Expasy ProtParam tool. The maximum and minimum values of this index are +4.5 and -4.5 for poly-Ile and poly-Arg sequences, respectively. 2 Retention times were measured using semipreparative reversed-phase high-performance liquid chromatography (RP - HPLC) on a C18 column with a linear gradient from 5 to 80% ( v/v) acetonitrile in water containing 0.1% trifluoroacetic […]
acid (TFA) within 50 minutes. […]

The next series deals with Gram-positive bacteria. The class given is cell-based. Particulars: 24 h. Here is the method:
(§1) The antimicrobial activity of the peptides was determined via the method of two-fold serial dilutions in sterile 96-well flat-bottom polystyrene microplates (Eppendorf #0030730011) in Mueller–Hinton broth (MHB, Sigma, Kawasaki, Kanagawa, Japan) supplemented with 0.9% NaCl. Bacterial cultures were grown in MHB at 37 °C until the culture reached an optical density OD600 of 1.0 and diluted with the broth so that to reach a final cell concentration of 10^6 CFU/mL. Then 50 μL of the test culture were added to 50 μL of aqueous solutions of the peptides, previously diluted in 0.1% sterilized bovine serum albumin (BSA) to reduce non-specific binding of the peptides to the surface of the plates. Next, the plate was incubated for 24 h at 37 °C and 950 rpm on the plate thermoshaker (Biosan). The values of the minimum inhibitory concentrations (MIC) were determined as the minimum concentration of the peptide, at which there is no culture growth. The results were expressed as the median values of three independent experiments performed in triplicate.

The subject of a further series is Gram-negative bacteria. Nature of the series: Geometric mean of MICs, Gram-negative panel. The series is classed as cell-based. Here is the method:
as §1

The next series concerns human red blood cells. The series is classed as cell-based. Here is the method: Figure 4 (A) Hemolytic effect on human red blood cells after 2 h incubation (hemoglobin release assay). (B) Cytotoxicity toward transformed human embryonic kidney cells after 20 h incubation (MTT-assay). The positive control used was 0.1% Triton X-100 and sterile PBS as a negative control. Melittin was used as an additional positive control. The data are presented as the mean ± SD of three independent experiments.
The hemolytic activity of compounds was performed using human red blood cells (hRBS) of healthy donor. Fresh blood was centrifuged to separate the erythrocyte fraction for 15 min at 500 g and washed three times with cold phosphate-buffered saline (PBS) (pH 7.4), after which an 8% (v/v) suspension of erythrocytes in PBS was prepared. Then, 50 µL of erythrocyte suspension was added to the test peptides, previously were dissolved in 50 µL of 0.1% BSA. The plate was incubated for 1.5 h at 37 °C and 950 rpm on the plate thermoshaker. After incubation, the plates were centrifuged for 15 min at 1000 g to settle intact erythrocytes. Next, aliquots of the supernatant were transferred to another plate to measure the amount of hemoglobin release by the absorbance of the solution at 405 nm. As “zero lysis” we used the supernatant obtained after centrifugation of erythrocytes incubated in a PBS solution without the addition of a peptide. As “100% lysis”, we used the supernatant obtained after centrifugation of erythrocytes incubated in a 0.1% Triton X-100, causing their complete lysis. The assays were conducted three times. The quantitative data were presented as an average means with standard deviations. Hemolysis(%)=OD405(compound)−OD405(zerolysis)/OD405(100%lysis)−OD405(zerolysis)×100%

In series [2] the test system is P. aeruginosa PAO1 mature biofilms. Put plainly: Effect on mature biofilms, viability by MTT. Particulars: P. aeruginosa PAO1 pre-formed biofilm, 2-h exposure.
Description: Biofilm viability was measured by tetrazolium salt reduction (right panel). Values are presented as means ± the standard deviation (SD) of three independent experiments.
The effect of peptides on pre-formed biofilms was evaluated as follows. Biofilms were grown on a 96-well plate at 32 °C for 24 h and stirred at 120 rpm to ensure biofilm formation primarily on the wall of the wells. […] Bacterial survival in the biofilms after 2-h exposure was evaluated via a MTT assay after incubation with a tested peptide. Then, wells were rinsed with sterile water, treated with an MTT solution (Sigma, Kawasaki, Kanagawa, Japan) in PBS, and incubated for 4 h at 37 °C. Next, the medium was removed. The resulting formazan crystals were dissolved in a mixture of EtOH and DMSO (1:1) for 10 min. The optical density of the solution was measured at 570 nm. Bacterial survival was calculated as percent relative to samples without antimicrobial agent. All data were obtained from at least three independent experiments in 3 repetitions.
The test system of another series is E. coli 3421/E19. Nature of the series: Neutropenic mice peritonitis model. The class given is in vivo, BALB/c mice. Particulars: for Efficacy in the neutropenic peritonitis model (in words): single i.v. dose of 10 mg/kg, E. coli 3421/E19. Here is the method:
Immune-deficient mice were inoculated intraperitoneally (i.p.) with bacterial suspension. Antimicrobial agent was administered 1 h post-infection, and colony counts in blood and peritoneal fluid (PF) were determined 5 h later.
(A) The mice peritonitis model. […] Horizontal bars indicate means ± SD.
Food and water were provided ad libitum.
CFU counts were determined from blood and peritoneal fluid (PF) 5 h after treatment. The mice were euthanized by CO2 asphyxiation and blood was collected by axillary cut down. A total of 2 mL sterile saline was injected i.p. and the abdomen gently massaged before it was opened, fluid sampled with a pipette, serially diluted and placed on Endo agar supplemented with 20 µg/mL of tetracycline for CFU identification.

A further series relates to E. coli ML-35p. Particulars: for Fold reduction of antibacterial activity in the presence of serum: MHB + 0.9% NaCl with 25% FBS versus without. Here is the method: Initially, antimicrobial activity of abarenicin and UuBRI-21 was evaluated against the reference strain of E. coli (ML-35p) under various conditions (Table 1). Minimal inhibitory concentrations (MICs) were determined via two-fold serial dilutions in 96-well polystyrene plates. Serial dilutions were made in 0.1% bovine serum albumin (BSA) to minimize the absorption of peptides on the surface of plate wells. Mueller–Hinton broth (MHB) supplemented with 0.9% NaCl was used as the standardized medium.
as §1, with “Bacterial” for “The antimicrobial activity of the peptides was determined via the method of two-fold serial dilutions in sterile 96-well flat-bottom polystyrene microplates (Eppendorf #0030730011) in Mueller–Hinton broth (MHB, Sigma, Kawasaki, Kanagawa, Japan) supplemented with 0.9% NaCl. Bacterial”

In another series the test system is E. coli ATCC 25922. Nature of the series: Mice septicemia model, survival. Particulars: BALB/c mice, n = 8, E. coli ATCC 25922 i.p. with 2.5% mucin.

Converted amounts (≈) assume the structure as drawn. Positions of bridges follow the written chain, without caps; N, C: chain ends. Residues, ends and D or L forms follow the SMILES beside them.

Description for E. coli ATCC 25922: Ciprofloxacin (the single dose of 10 mg/kg) and saline were used as the positive and negative controls, respectively. […] Mice were controlled once daily for their health status during 7 post-infection days.
Then, we examined an efficacy of AMPs in the mice septicemia model using 8 animals in a group (Figure 10B).
Experiments were performed with female 8–10-week-old BALB/c mice (22–24 g, “Andreevka” laboratory animal nursery FMBA, Russia). […] All animal experiments were performed at the State Research Center for Applied Microbiology and Biotechnology (SRCAMB) in Obolensk, Russia. The animals were housed in groups of 5 in polycarbonate cages. Food and water were provided ad libitum.
A total of 4 groups with 8 animals were used. The first group received ciprofloxacin (Sigma, Kawasaki, Kanagawa, Japan) administered i.p. once (1 h post-infection) at a dose of 10 mg/kg. The second group received saline (as a vehicle control) administered i.p. once (1 h post-infection). […] Survival was monitored for 7 days. After that survived animals were euthanized by CO2 asphyxiation.

Consider `CC[C@H](C)[C@@H]1NC(=O)[C@H](CCCNC(=N)N)NC(=O)[C@H](C(C)C)NC(=O)CNC(=O)[C@H](CC(N)=O)NC(=O)[C@H](CCCNC(=N)N)NC(=O)[C@H](CCCNC(=N)N)NC(=O)[C@H](Cc2ccc(O)cc2)NC(=O)[C@@H]2CSSC[C@H](NC1=O)C(=O)N[C@@H](Cc1ccc(O)cc1)C(=O)N[C@@H](CCCNC(=N)N)C(=O)N[C@@H](CCCNC(=N)N)C(=O)N[C@H](C(=O)N[C@@H](CC(N)=O)C(=O)O)CSSC[C@H](NC(=O)[C@H](Cc1ccc(O)cc1)NC(=O)CN)C(=O)N[C@@H](Cc1ccccc1)C(=O)N[C@@H]([C@@H](C)O)C(=O)N[C@@H](C)C(=O)N2` [Ap4] (H-GYCFTACYRRNGVRICYRRCN-OH; disulfide 3-20, 7-16), for which the “RP-HPLC Retention Time” value in series [1] stood at 24.79 min. Moreover, in the series with Gram-positive bacteria, the “Minimum inhibitory concentration (MIC): Gram-positive Geometric mean” value is 0.63 µM (≈ 1.62 µg/mL). The “Minimum inhibitory concentration (MIC): Gram-negative Geometric mean” value in the series on Gram-negative bacteria (geometric mean (GM) of MICs against the 14 Gram-negative strains of Figure 2) came out at 0.13 µM (≈ 0.334 µg/mL). Moreover, in the series on human red blood cells, the “Hemolytic activity (in words)” value was “ability to lyse hRBCs is stronger”.
In the case of `CC[C@H](C)[C@@H]1NC(=O)[C@H](CCCNC(=N)N)NC(=O)[C@H](C)NC(=O)CNC(=O)[C@H](CC(N)=O)NC(=O)[C@H](CCCNC(=N)N)NC(=O)[C@H](CCCNC(=N)N)NC(=O)[C@H](C)NC(=O)[C@@H]2CSSC[C@H](NC1=O)C(=O)N[C@@H](Cc1ccc(O)cc1)C(=O)N[C@@H](CCCNC(=N)N)C(=O)N[C@@H](CCCNC(=N)N)C(=O)N[C@H](C(=O)N[C@@H](CC(N)=O)C(=O)O)CSSC[C@H](NC(=O)[C@H](Cc1ccc(O)cc1)NC(=O)CN)C(=O)N[C@@H](Cc1ccccc1)C(=O)N[C@@H]([C@@H](C)O)C(=O)N[C@@H](C)C(=O)N2` [Ap11] (H-GYCFTACARRNGARICYRRCN-OH; disulfide 3-20, 7-16), the “Residual viability of bacteria in mature biofilm” value in series [2] (16 µM) is recorded as “about 20%”. In series [1], the “RP-HPLC Retention Time” value is 25.17 min. Further, the “Minimum inhibitory concentration (MIC): Gram-positive Geometric mean” value in the series on Gram-positive bacteria amounted to 4 µM (≈ 9.8 µg/mL). Moreover, the “Efficacy in the neutropenic peritonitis model (in words)” value (“Efficacy … (in words)” for short) in the series with E. coli 3421/E19 is recorded as “ineffective”. Moreover, the “Fold reduction of antibacterial activity in the presence of serum” value (“Fold reduction of antibacterial activity” below) in the series with E. coli ML-35p amounted to 4 fold. Moreover, the “Fold reduction in the antimicrobial activity compared to Ap4” value in the series on Gram-negative bacteria (Gram-negative GM values) is “at least 5 fold”.
For `CC(C)[C@@H]1NC(=O)[C@H](Cc2ccc(O)cc2)NC(=O)[C@H](Cc2c[nH]c3ccccc23)NC(=O)[C@@H](NC(=O)[C@H](Cc2ccccc2)NC(=O)CN)CSSC[C@@H](C(=O)N[C@@H](CC(N)=O)C(=O)O)NC(=O)[C@H](CCCNC(=N)N)NC(=O)[C@H](CCCNC(=N)N)NC(=O)[C@H](Cc2ccc(O)cc2)NC(=O)[C@@H]2CSSC[C@H](NC1=O)C(=O)N[C@@H](C)C(=O)N[C@@H](CCCNC(=N)N)C(=O)N[C@@H](CCCNC(=N)N)C(=O)N[C@@H](CC(N)=O)C(=O)NCC(=O)N[C@@H](C)C(=O)N[C@@H](CCCNC(=N)N)C(=O)N[C@@H](C(C)C)C(=O)N2` [AA139, reference compound] (H-GFCWYVCARRNGARVCYRRCN-OH; disulfide 3-20, 7-16), the “RP-HPLC Retention Time” value in series [1] amounted to 25.67 min. Moreover, the “Minimum inhibitory concentration (MIC): Gram-positive Geometric mean” value with Gram-positive bacteria amounted to 4 µM (≈ 10.2 µg/mL). Also, the “Bacterial burden in mice blood (in words)” value in the series on E. coli 3421/E19 (neutropenic BALB/c mice, n = 5, i.p. infection, single i.v. dose 1 h post-infection (AMPs 10 mg/kg, polymyxin B 5 mg/kg), CFU 5 h after treatment) is “complete reduction”. For the same compound, the “Reduction of the CFU level in peritoneal fluid (PF)” value with E. coli 3421/E19 (neutropenic BALB/c mice, n = 5, single i.v. dose (AMPs 10 mg/kg, polymyxin B 5 mg/kg), CFU 5 h after treatment) was ~ 5 log. Further, in the series with E. coli 3421/E19, the “Efficacy … (in words)” value is “effective”. For the same compound, the “Fold reduction of antibacterial activity” value with E. coli ML-35p is on record as 4 fold. Moreover, the “Minimum Inhibitory Concentration, MHB + 0.9% NaCl + 25% FBS” value with E. coli ML-35p (Table 1, medium with 25% fetal bovine serum) is reported as 1 µM. In addition, the “Minimum Inhibitory Concentration, MHB + 0.9% NaCl” value with E. coli ML-35p (Table 1, without FBS, dilutions in 0.1% BSA) turned out to be 0.25 µM. For the same compound, in the series with E. coli ATCC 25922 (peptide i.p. 10 mg/kg at 1 and 4 h post-infection, 7 days), the “Therapeutic efficacy (survival) after one-week experiment” value came out at 87.5%.
Take `CC[C@H](C)[C@@H]1NC(=O)[C@H](CCCNC(=N)N)NC(=O)[C@H](C(C)C)NC(=O)CNC(=O)[C@H](CC(N)=O)NC(=O)[C@H](CCCNC(=N)N)NC(=O)[C@H](Cc2ccc(O)cc2)NC(=O)[C@H](Cc2ccc(O)cc2)NC(=O)[C@@H]2CSSC[C@H](NC1=O)C(=O)N[C@@H](C(C)C)C(=O)N[C@@H](CCCNC(=N)N)C(=O)N[C@@H](Cc1ccc(O)cc1)C(=O)N[C@H](C(=O)N[C@@H](CC(N)=O)C(=O)O)CSSC[C@H](NC(=O)[C@H](Cc1ccccc1)NC(=O)CN)C(=O)NCC(=O)N[C@@H](Cc1ccc(O)cc1)C(=O)N[C@@H](C)C(=O)N2` [UuBRI-21] (H-GFCGYACYYRNGVRICVRYCN-OH; disulfide 3-20, 7-16): in series [1], the “RP-HPLC Retention Time” value was 28.48 min. The “Minimum inhibitory concentration (MIC): Gram-positive Geometric mean” value in the series on Gram-positive bacteria was 2 µM (≈ 4.95 µg/mL). Besides, the “Efficacy … (in words)” value in the series with E. coli 3421/E19 is “lack of effectivity”. Moreover, the “Fold reduction of antibacterial activity” value with E. coli ML-35p is 16 fold. The “Hemolytic activity (in words)” value in the series on human red blood cells was “moderate hemolytic activity”.
As for `O=C(O)c1cn(C2CC2)c2cc(N3CCNCC3)c(F)cc2c1=O` [ciprofloxacin, reference compound], the “Effect on bacteria inside mature biofilm (in words)” value in series [2] is “not able to impair bacteria inside biofilm”. Also, in the series on E. coli ATCC 25922 (single i.p. dose of 10 mg/kg 1 h post-infection), the “Survival (in words)” value was “survival of all mice”.
